According to patent US20020127268A1, “Anion regulator for ruminants” (AJINOMOTO CO., INC., priority 1997, published 2002):

Test system: Holstein calves
Test: Test on anion regulating activity (urinary pH)
Assay type: in vivo
Settings: Table 3 and FIG. 1 summary
Experimental: If a DCAD value is positive, the urinary pH is 7-8.5. It is also known that if an anion regulator is added, and as a result the feed is changed to show a negative DCAD value, the urinary pH of animals to which such feed has been fed is reduced and will show a value of 6.5-5.5 when the anion regulator has been added in an appropriate amount. […] (1995), Sep., p.634 (Japanese version).
Experiments were conducted using six(6) Holstein calves with a body weight of approximately 200 kg. They were divided into three groups, two calves in a group. The groups were each fed with one of the following three(3) types of experimental feeds. Feed consisting of […] concentrated feed (“Beef-fast”, ex Itochu Feed Co.), 550 g of timothy-hay and 550 g of alfalfa hay cubes was fed, twice a day, at 9 and 16 o'clock, for one week before the start of the experiment, for adaptation.
These three(3) types of mixed feeds were separately supplied to each group at 9 and 16 o'clock on the same day and at 9 o'clock on the next day. After 10 minutes, each mixed feed was removed, and subsequently, a mixture of 900 g of concentrated feed, 500 g of timothy-hay and 550 g of alfalfa hay cubes, was supplied instead.
In the table and figure, for example, terms Lys HCl 1 and Lys HCl 2 indicate respectively the two calves in the first group which was fed with Lys HCl (Lys HCl-feeded group).

Row | Compound | Effectiveness as anion regulator | Reduction of urinary pH compared with NH4Cl
1 | Cl.N=C(N)NCCC[C@H](N)C(=O)O [L-arginine hydrochloride, L-arginine monohydrochloride] | effective as anion regulators | reduce urinary pH better than NH4Cl
2 | Cl.NCCCC[C@H](N)C(=O)O [L-lysine hydrochloride, L-lysine monohydrochloride] | effective as anion regulators | reduce urinary pH better than NH4Cl
